The subject of this assay is RSV strain A2. Kind of assay: RSV antiviral cytoprotection assay in Hep2 cells (96-well and 384-well format, Cell TiterGlo read-out). Conditions: human respiratory syncytial virus; for inhibition at 0.5 µM: HEp-2, 0.5 uM; for EC50: HEp-2, RSV-induced cytopathic effects, Hep2 cells, class symbols. The format is cell-based, Respiratory Syncytial Virus (RSV). For orientation: In ATP-based viability assays light output follows the ATP content of the culture.

The mark [1] stands for this setting: RSV-induced cytopathic effect in Hep2 cells, calculated from fitted dose response curve, normalized to 0% and 100%.

Regarding `CS(=O)(=O)Nc1ccc(Cl)cc1C(=O)N1CCCC[C@H]1c1cc2nc(N3CC(N)C3)cc(N3CCOCC3)n2n1` [Compound 68], the EC50 lay within 0.1 to 100 nM. For the same molecule, the inhibition at 0.5 µM under setting [1] was 100%.

As for `Cc1cc(C(=O)N2CCCC[C@H]2c2cc3nc(N4CC[C@H](N)C4)c(C)cn3n2)on1` [Compound 266], the half-maximal effective concentration (EC50) lay within 0.1 to 100 nM. The inhibition at 0.5 µM under setting [1] was 100%.

Turning to `Cc1cc(C2CC2)nc2cc([C@@H]3CCCCN3C(=O)c3cc(Cl)ccc3NS(C)(=O)=O)nn12` [Compound 60], the concentration for a half-maximal effect (EC50) lay within 0.1 to 100 nM. Under setting [1], the inhibition at 0.5 µM was 100%.

With `CS(=O)(=O)Nc1ccc(Cl)cc1C(=O)N1CCCC[C@H]1c1cc2nc(N3CCC3)cc(N3CC(O)C3)n2n1` [Compound 56], the half-maximal effective concentration (EC50) lay in the range of 0.1 to 100 nM. For the same molecule, the inhibition at 0.5 µM under setting [1] is 100%.

Consider `CN1CCN(c2cc(N3CC(O)C3)nc3cc([C@@H]4CCCCN4C(=O)c4cc(Cl)ccc4NS(C)(=O)=O)nn23)CC1` [Compound 54], for which the half-maximal effective concentration (EC50) is 0.1 to 100 nM. Further, the inhibition at 0.5 µM under setting [1] is 100%.

On to `COc1ccc(C(=O)N2CCCC[C@H]2c2cc3nc(N4CC[C@H](N)C4)c(C)cn3n2)c(C)c1` [Compound 322], for which the EC50 lay in the range of 0.1 to 100 nM. Also, the inhibition at 0.5 µM under setting [1] was 100%.

As for `Cc1cn2nc([C@@H]3CCCCN3C(=O)c3cc(Cl)ccc3NS(C)(=O)=O)cc2nc1N1CCC[C@H]1C#N` [Compound 200], the concentration for a half-maximal effect (EC50) is 0.1 to 100 nM. Further, under setting [1], the inhibition at 0.5 µM was 95%.

Consider `CS(=O)(=O)Nc1ccc(Cl)cc1C(=O)N1CCCC[C@H]1c1cc2nc(N3CC(O)C3)cc(N3CC(O)C3)n2n1` [Compound 59], for which the EC50 lay in the range of 0.1 to 100 nM. Besides, the inhibition at 0.5 µM under setting [1] is 100%.

In the case of `Cc1cn2nc([C@@H]3CCCCN3C(=O)c3cc(Cl)ccc3Cl)cc2nc1N1CC[C@H](N)C1` [Compound 391], the EC50 was in the range of 0.1 to 100 nM. Further, the inhibition at 0.5 µM under setting [1] was 99%.

Regarding `COC(=O)Nc1ccc(Cl)cc1C(=O)N1CCCC[C@H]1c1cc2nc(N3CC[C@H](N)C3)c(C)cn2n1` [Compound 220], the EC50 lay within 0.1 to 100 nM. Also, under setting [1], the inhibition at 0.5 µM is 100%.

As to `CNc1ccccc1C(=O)N1CCCC[C@H]1c1cc2[nH]c(C)c(C)c(=O)n2n1` [Compound 7], the EC50 was in the range of 0.1 to 100 nM. Moreover, the inhibition at 0.5 µM under setting [1] is 93%. The inhibition at 1 µM (HEp-2, 1 uM, RSV-induced cytopathic effect in Hep2 cells, calculated from fitted dose response curve, normalized to 0% and 100%) was 98%.

Turning to `Cc1cc(N(C)C)nc2cc([C@@H]3CCCCN3C(=O)c3cc(Cl)ccc3NS(C)(=O)=O)nn12` [Compound 41], the EC50 lay in the range of 0.1 to 100 nM. In addition, the inhibition at 0.5 µM under setting [1] is 95%.

For the molecule `CC(=O)Nc1ccc(Cl)cc1C(=O)N1CCCC[C@H]1c1cc2nc(C3CC3)cc(C)n2n1` [Compound 66], the 50% effective concentration (EC50) lay in the range of 0.1 to 100 nM. Besides, under setting [1], the inhibition at 0.5 µM was 99%.

With `Cc1cn2nc(C3CCCCCN3C(=O)c3cc(Cl)ccc3NS(C)(=O)=O)cc2nc1N1CC(O)C1` (stereo not drawn) [Compound 174], the concentration giving a half-maximal response (EC50) lay in the range of 0.1 to 100 nM. Besides, the inhibition at 0.5 µM under setting [1] was 100%.

Regarding `Cc1cn2nc([C@@H]3CCCCN3C(=O)c3cccnc3F)cc2nc1N1CC[C@H](N)C1` [Compound 282], the concentration giving a half-maximal response (EC50) lay in the range of 0.1 to 100 nM. The inhibition at 0.5 µM under setting [1] is 100%.

With `Cc1cn2nc([C@@H]3CCCCN3C(=O)c3nccs3)cc2nc1N1CC[C@H](N)C1` [Compound 268], the half-maximal effective concentration (EC50) lay in the range of 101 to 1000 nM. In addition, under setting [1], the inhibition at 0.5 µM was 76%.

As for `Cc1cn2nc([C@@H]3CCCCN3C(=O)c3cc(Cl)ccc3NS(C)(=O)=O)cc2nc1N1CCC(C)(C#N)C1` (stereo partly drawn) [Compound 205], the EC50 lay within 0.1 to 100 nM. In addition, the inhibition at 0.5 µM under setting [1] was 91%.

For the molecule `Cc1cn2nc([C@@H]3CCCCN3C(=O)c3cc(Cl)ccc3NS(C)(=O)=O)cc2nc1N1CCC(O)CC1` [Compound 218], the 50% effective concentration (EC50) lay in the range of 101 to 1000 nM. Further, under setting [1], the inhibition at 0.5 µM is 72%.

Consider `Cc1cn2nc([C@@H]3CCCCN3C(=O)c3cc(Cl)ccc3NS(C)(=O)=O)cc2nc1N1CC(OC(=O)[C@@H]2CCCN2)C1` [Compound 171], for which the EC50 lay within 0.1 to 100 nM. Besides, the inhibition at 0.5 µM under setting [1] is 100%.

As a reminder, the inhibition is the change of the read-out against control, counted positive when it falls. A word on the EC50: it is the concentration at which the effect is half-maximal.

The values above are taken from patent US9238039B2, “Pyrazolo[1,5-A]pyrimidines for antiviral treatment” (Gilead Sciences, Inc., priority 2010, dated 2016).
